Measured values as given in PubChem BioAssay (NCI).
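1) Cells in 96-well plates. 2) Compound, 48 h, 5 concentrations. 3) Linear interpolation between surrounding doses. 4) Unreached endpoint = highest concentration. TGI denotes the concentration required for complete inhibition of growth.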

Columns and labels:
Test in all cases: growth of human tumour cells (NCI), 48 h
[1] = system: UACC-62 melanoma
[2] = system: NCI-H522 lung
[3] = system: K-562 leukemia
[4] = system: SR leukemia
[5] = system: SK-MEL-28 melanoma
[6] = system: NCI-H23 lung
[7] = system: SF-268 CNS
[8] = system: CCRF-CEM leukemia
[9] = system: MDA-MB-231 breast
[10] = system: HCT-116 colon
[11] = system: M14 melanoma
[12] = system: PC-3 prostate
[13] = system: SNB-19 CNS
[14] = system: MOLT-4 leukemia
[15] = system: HL-60(TB) leukemia
[16] = system: MCF7 breast
[17] = system: SF-539 CNS
[18] = system: EKVX NSCLC
[19] = system: CAKI-1 renal
[20] = system: RPMI-8226 leukemia

SMILES	TGI [1] [µM]	TGI [2] [µM]	TGI [3] [µM]	TGI [4] [µM]	TGI [5] [µM]	TGI [6] [µM]	TGI [7] [µM]	TGI [8] [µM]	TGI [9] [µM]	TGI [10] [µM]	TGI [11] [µM]	TGI [12] [µM]	TGI [13] [µM]	TGI [14] [µM]	TGI [15] [µM]	TGI [16] [µM]	TGI [17] [µM]	TGI [18] [µM]	TGI [19] [µM]	TGI [20] [µM]
Cc1cccc2c1Oc1cc(Cl)ccc1C2NC(=O)CCN1CCN(CCO)CC1 (configuration not stated)	28.7	23.2	40.6	45.1	9.93	51.5	> 100	37.9	14.6	34.6	30.3	28.1	72	38.9	39	30.3	26	70.5	–	–
CN1CN(c2ccccc2)C2(CCN(CCCSc3ccccc3NC(=O)/C=C/c3ccccc3)CC2)C1=O	6.37	62.4	15.6	12.3	6.09	25.1	> 46	> 100	3.32	8.76	3.89	23.5	25.1	7	23.8	> 49.8	6.45	44.5	> 26.5	–
COc1cc(-c2oc3c(OC)c(O)c(OC)c(O)c3c(=O)c2OC)cc(O)c1OC	71.8	> 100	> 100	–	> 100	76.8	–	79.4	> 100	> 100	> 100	> 100	> 100	> 100	57.9	> 100	45.4	> 100	> 100	> 100
COc1ccc2nc3ccc(OC)cc3c(S(=O)(=O)Cc3ccc([N+](=O)[O-])cc3)c2c1	> 100	> 100	> 100	> 100	> 100	> 100	> 100	> 100	> 100	> 100	> 100	> 100	> 100	> 100	> 100	> 100	> 100	> 100	> 100	–
CC(=O)OCC1OC(n2c3c(c(-c4ccco4)c(C#N)c2=S)CCC3)C(OC(C)=O)C(OC(C)=O)C1OC(C)=O (configuration not stated)	> 100	–	> 100	> 100	> 100	> 100	> 100	–	–	> 100	> 100	> 100	> 100	45.3	> 100	> 100	> 100	–	> 100	> 100
CC1(C2(C)OC(=O)c3ccccc32)OC(=O)c2ccccc21 (configuration not stated)	> 100	> 100	–	> 100	> 100	> 100	> 100	–	> 100	> 100	> 100	> 100	> 100	> 100	> 100	> 100	> 100	–	> 100	> 100
